Target: human factor Xa (Homo sapiens, UniProt P00742)
Test: Factor Xa assay (chromogenic, substrate S-2765)

human factor Xa, sequence (P00742 235-488 limits assumed): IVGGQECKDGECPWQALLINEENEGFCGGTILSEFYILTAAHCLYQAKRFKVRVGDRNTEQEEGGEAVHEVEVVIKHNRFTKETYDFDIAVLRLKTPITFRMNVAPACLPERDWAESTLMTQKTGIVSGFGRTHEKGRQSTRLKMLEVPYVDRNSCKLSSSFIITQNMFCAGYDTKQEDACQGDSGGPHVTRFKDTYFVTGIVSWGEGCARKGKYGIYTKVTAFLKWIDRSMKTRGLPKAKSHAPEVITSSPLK
human factor Xa, sequence (P00742 41-179 partner limits assumed): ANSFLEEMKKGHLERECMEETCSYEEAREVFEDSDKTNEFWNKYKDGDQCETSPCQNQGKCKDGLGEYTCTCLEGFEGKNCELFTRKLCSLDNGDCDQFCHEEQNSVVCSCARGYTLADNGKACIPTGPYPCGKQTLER

| Ki | SMILES |
| --- | --- |
| 10 nM | CC(C)N1CCC(NC(=O)c2nn(Cc3cc(-c4ccc(Cl)s4)on3)c3ccc(C(=O)N4CC(C(=O)O)C4)cc23)CC1 [Example 52, 1-[1-[5-(5-Chloro-thiophen-2-yl)-isoxazol-3-ylmethyl]-3-(1-isopropyl-piperidin-4-ylcarbamoyl)-1H-indazole-5-carbonyl]-azetidine-3-carboxylic acid] |
| 240 nM | O=C(Cn1nc(C(=O)Nc2ccc(N3CCOCC3=O)cc2)c2ccccc21)Nc1ccc(Cl)cn1 [Example 53, 1-[(5-Chloro-pyridin-2-ylcarbamoyl)-methyl]-1H-indazole-3-carboxylic acid [4-(3-oxo-morpholin-4-yl)-phenyl]-amide] |
| 52 nM | O=C(Nc1ccc(-n2ccc(=O)cc2)cc1)c1nn(Cc2cc(-c3ccc(Cl)s3)on2)c2ccccc12 [Example 54, 1-[5-(5-Chloro-thiophen-2-yl)-isoxazol-3-ylmethyl]-1H-indazole-3-carboxylic acid [4-(4-oxo-4H-pyridin-1-yl)-phenyl]-amide] |
| 43 nM | COCCOC(=O)c1ccc2c(c1)c(C(=O)NC1CCN(C(C)C)CC1)nn2Cc1cc(-c2ccc(Cl)s2)on1 [Example 56, 1-[5-(5-Chloro-thiophen-2-yl)-isoxazol-3-ylmethyl]-3-(1-isopropyl-piperidin-4-ylcarbamoyl)-1H-indazole-5-carboxylic acid 2-methoxy-ethyl ester] |

— patent US7365088B2, “Indazole-derivatives as factor Xa inhibitors” (Sanofi-Aventis Deutschland GmbH, priority 2003, dated 2008)
